Patent US9840500B2, “Compounds as dual inhibitors of histone methyltransferases and DNA methyltransferases” (FUNDACIÓN PARA LA INVESTIGACIÓN MÉDICA APLICADA, priority 2014, dated 2017)

Assays:
[1] = test system: HepG2; assay: Cell proliferation assay, HepG2 (HCC); type: cell-based; details: Homo sapiens, 48 hours of treatment, Table 3
[2] = test system: UACC-62; assay: Cell proliferation assay, UACC-62 (Melanoma); type: cell-based; details: Homo sapiens, 48 hours
Procedure: (§1) Cell proliferation was analyzed after 48 hours of in vitro treatment using the CellTiter 96 Aqueous One Solution Cell Proliferation Assay (Promega, Madison, Wis.). This is a colorimetric method for determining the number of viable cells in proliferation.
(§2) For the assay, suspension cells were cultured by triplicate at a density of 1×10^6 cells/ml in 96-well plates (100.000 cells/well, 100 μl/well), except for OCILY-3 and OCILY-10 cell lines which were cultured at a density of 0.5×10^6 cells/ml (50.000 cells/well, 100 μl/well) and for HepG2, Hep3B and PLC/PRF/5 cell ines which were cultured at a density of 3000 cells/well, 100 μl/well). Adherent cells were obtained from 80-90% confluent flasks and 100 μl of cells were seeded at a density of 5000 cells/well in 96-well plates by triplicate. Before addition of the compounds, adherent cells were allowed to attach to the bottom of the wells for 12 hours. […]
(§3) After 48 hours of treatment, plates with suspension cells were centrifuged at 800 g for 10 minutes and medium was removed. […] After 1-3 hours of incubation at 37° C., absorbance was measured at 490 nm in a 96-well plate reader. The background absorbance was measured in wells with only cell line medium and solution reagent. Data was calculated as a percentage of total absorbance of treated cell/absorbance of non treated cells. […]

[3] = test system: RT112; assay: Cell proliferation assay, RT112 (Bladder); type: cell-based; details: Homo sapiens, RT-112, 48 hours
Procedure: as §1, §2, §3

[4] = test system: MV411; assay: Cell proliferation assay, MV411 / MV4-11 (AML); type: cell-based; details: Homo sapiens
Procedure: as §1
(§4) For the assay, suspension cells were cultured by triplicate at a density of 1×10^6 cells/ml in 96-well plates (100.000 cells/well, 100 μl/well), except for OCILY-3 and OCILY-10 cell lines which were cultured at a density of 0.5×10^6 cells/ml (50.000 cells/well, 100 μl/well) and for HepG2, Hep3B and PLC/PRF/5 cell ines which were cultured at a density of 3000 cells/well, 100 μl/well). Adherent cells were obtained from 80-90% confluent flasks and 100 μl of cells were seeded at a density of 5000 cells/well in 96-well plates by triplicate. Before addition of the compounds, adherent cells were allowed to attach to the bottom of the wells for 12 hours. In all cases, only the 60 inner wells were used to avoid any border effects.
(§5) After 48 hours of treatment, plates with suspension cells were centrifuged at 800 g for 10 minutes and medium was removed. The plates with adherent cells were flicked to remove medium. Then, cells were incubated with 100 ul/well of medium and 20 ul/well of CellTiter 96 Aqueous One Solution reagent. After 1-3 hours of incubation at 37° C., absorbance was measured at 490 nm in a 96-well plate reader. The background absorbance was measured in wells with only cell line medium and solution reagent. Data was calculated as a percentage of total absorbance of treated cell/absorbance of non treated cells.
(§6) Compounds 3-04 and 3-07 were tested against different solid tumour and oncohematological cell lines using the cell proliferation protocol described above.

[5] = test system: DU145; assay: Cell proliferation assay, DU145 (Prostate); type: cell-based; details: Homo sapiens, DU-145, 48 hours
Procedure: as §1, §2, §3

[6] = test system: PLC/PRF/5; assay: Cell proliferation assay, PLC/PRF/5 (HCC); type: cell-based; details: Homo sapiens, 48 hours of treatment, Table 3
[7] = test system: HCT-116; assay: Cell proliferation assay, HCT-116 (Colorectal); type: cell-based; details: Homo sapiens, 48 hours
Procedure: as §1, §2, §3

[8] = test system: U266; assay: Cell proliferation assay, U266 (MM); type: cell-based; details: Homo sapiens, U-266, Table 5 comparison
Procedure: as §1, §4, §5

[9] = test system: H460; assay: Cell proliferation assay, H460 (non-small-cell lung cancer); type: cell-based; details: Homo sapiens, NCI-H460, 48 hours
Procedure: as §1, §2, §3

[10] = test system: Hep3B; assay: Cell proliferation assay, Hep3B (HCC); type: cell-based; details: Homo sapiens, 48 hours of treatment, Table 3
[11] = test system: MCF-7; assay: Cell proliferation assay, MCF-7 (Breast); type: cell-based; details: Homo sapiens, MCF7, 48 hours
Procedure: as §1, §2, §3

[12] = test system: PC3; assay: Cell proliferation assay, PC3 (Prostate); type: cell-based; details: Homo sapiens, PC-3, 48 hours
Procedure: as §1, §2, §3

[13] = test system: LOVO; assay: Cell proliferation assay, LOVO (Colorectal); type: cell-based; details: Homo sapiens, 48 hours
Procedure: as §1, §2, §3

[14] = test system: COLO-205; assay: Cell proliferation assay, COLO-205 (Colorectal); type: cell-based; details: Homo sapiens, 48 hours
Procedure: as §1, §2, §3

[15] = test system: CAKI-2; assay: Cell proliferation assay, CAKI-2 (Renal); type: cell-based; details: Homo sapiens, 48 hours
Procedure: as §1, §2, §3

[16] = test system: OCI-AML-2; assay: Cell proliferation assay, OCI-AML-2 (AML); type: cell-based; details: Homo sapiens
Procedure: as §1, §4, §5, §6

[17] = test system: SK-MEL-103; assay: Cell proliferation assay, SK-MEL-103 (Melanoma); type: cell-based; details: Homo sapiens, 48 hours
Procedure: as §1, §2, §3

[18] = test system: HUH7; assay: Cell proliferation assay, HUH7 (Hepatocarcinoma); type: cell-based; details: Homo sapiens, Huh-7, 48 hours
Procedure: as §1, §2, §3

[19] = target: DNMT3A/3L (Homo sapiens, UniProt Q9Y6K1); assay: DNMT3A enzyme activity assay (chemiluminescence BPS DNMT Universal Assay Kit); type: biochemical
Procedure: DNMT3A and DNMT3B activity assays were carried out with the chemiluminiscence BPS DNMT Universal Assay Kit (BPS#52035) using a strip 96-well plate pre-coated with DNMT substrate.
The enzyme activity assay protocol is as follows: • Rehydrate the microwells by adding 150 μL of TBST buffer (1× Tris-buffered saline (TBS), pH 8.0, containing 0.05% Tween-20) to every well. Incubate 15 minutes at room temperature. • Dilute each purified DNMT [DNMT3A/3L (BPS#51106) or DNMT3B/3L (BPS#51109)] in 1×DNMT assay buffer 2 (BPS#52201) at 5-10 ng/μL. Keep diluted enzyme on ice until use. • Prepare 50 μL of reaction mixture consisting of 20 μL of DNMT (5-10 ng/μL), 12.5 μL of 4×DNMT assay buffer 2 (BPS#52201), 2.5 μL of S-adenosylmethionine 400 μM, test compound at concentrations ranging from 3 nM to 10 μM and H2O up to 50 μL. • Add the entire reaction mixture to the substrate coated wells. […]
Incubate for 30 min at room temperature with slow shaking. • Wash plate three times with TBST buffer and incubate in Blocking buffer shaking on a rotating platform for 10 min. […] Immediately read luminescence using a BioTek Synergy™2 microplate reader.
The chemiluminescence intensity data were analyzed and compared. […] Calculated IC50 values were determined using non-linear regression analysis of Sigmoidal dose-response curve generated with a four-parameters inhibition curve.

[20] = test system: WM-35; assay: Cell proliferation assay, WM-35 (Melanoma); type: cell-based; details: WM35, 48 hours
Procedure: as §1, §2, §3

[21] = test system: U87-MG; assay: Cell proliferation assay, U87-MG (Glioblastoma); type: cell-based; details: Homo sapiens, U-87 MG, 48 hours
Procedure: as §1, §2, §3

Chain of DNMT3A/3L (Q9Y6K1 whole entry, looked up): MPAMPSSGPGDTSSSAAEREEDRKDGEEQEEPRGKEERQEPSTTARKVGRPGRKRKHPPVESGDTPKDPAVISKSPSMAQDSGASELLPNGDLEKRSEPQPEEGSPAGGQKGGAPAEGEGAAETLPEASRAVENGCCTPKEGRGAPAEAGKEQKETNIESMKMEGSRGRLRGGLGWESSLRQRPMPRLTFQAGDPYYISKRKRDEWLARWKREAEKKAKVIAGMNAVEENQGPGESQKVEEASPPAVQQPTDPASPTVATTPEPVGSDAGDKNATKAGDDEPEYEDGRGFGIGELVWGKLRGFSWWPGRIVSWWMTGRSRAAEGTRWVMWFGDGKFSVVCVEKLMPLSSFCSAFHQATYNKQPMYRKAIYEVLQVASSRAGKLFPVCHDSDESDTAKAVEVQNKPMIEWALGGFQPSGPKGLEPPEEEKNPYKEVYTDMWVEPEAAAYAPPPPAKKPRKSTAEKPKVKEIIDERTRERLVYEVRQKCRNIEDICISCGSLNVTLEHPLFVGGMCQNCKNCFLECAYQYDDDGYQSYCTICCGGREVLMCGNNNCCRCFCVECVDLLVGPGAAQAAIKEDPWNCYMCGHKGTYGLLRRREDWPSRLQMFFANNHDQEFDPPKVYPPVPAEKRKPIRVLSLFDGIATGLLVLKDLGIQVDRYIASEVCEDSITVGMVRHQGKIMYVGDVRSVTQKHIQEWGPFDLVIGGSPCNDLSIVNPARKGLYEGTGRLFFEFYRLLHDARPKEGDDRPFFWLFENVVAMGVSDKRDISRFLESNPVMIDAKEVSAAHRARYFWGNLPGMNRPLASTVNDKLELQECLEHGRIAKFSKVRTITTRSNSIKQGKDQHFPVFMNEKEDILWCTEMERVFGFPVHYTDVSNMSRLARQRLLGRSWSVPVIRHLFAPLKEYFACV
Chain of DNMT3A/3L (Q9UJW3 whole entry partner): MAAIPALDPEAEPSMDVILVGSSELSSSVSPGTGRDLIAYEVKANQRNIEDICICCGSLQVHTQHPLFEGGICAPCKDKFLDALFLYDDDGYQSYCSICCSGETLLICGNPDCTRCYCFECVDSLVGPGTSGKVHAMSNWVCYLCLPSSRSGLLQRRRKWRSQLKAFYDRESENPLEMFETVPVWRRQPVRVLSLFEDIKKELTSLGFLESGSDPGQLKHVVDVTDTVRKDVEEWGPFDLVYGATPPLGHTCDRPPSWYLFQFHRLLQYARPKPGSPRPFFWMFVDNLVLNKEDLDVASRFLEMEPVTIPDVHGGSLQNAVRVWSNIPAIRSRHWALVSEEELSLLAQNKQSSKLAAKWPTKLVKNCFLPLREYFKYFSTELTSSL

Structure (SMILES)	GI50 [1] [nM]	GI50 [2] [nM]	GI50 [3] [nM]	GI50 ([4]; MV4-11, 48 hours, Table 4) [nM]	GI50 ([4]; MV4-11, Table 5 comparison) [nM]	GI50 [5] [nM]	GI50 [6] [nM]	GI50 [7] [nM]	GI50 [8] [nM]	GI50 [9] [nM]	GI50 [10] [nM]	GI50 [11] [nM]	GI50 [12] [nM]	GI50 [13] [nM]	GI50 [14] [nM]	GI50 [15] [nM]	GI50 ([16]; OCI-AML2, 48 hours, Table 4) [nM]	GI50 ([16]; OCI-AML2, Table 5 comparison) [nM]	GI50 [17] [nM]	GI50 [18] [nM]	other results
COc1cc2c(NC3CCN(C)CC3)cc(-c3ccc(C)o3)nc2cc1OCCCN1CCCC1.O=C(O)C(F)(F)F [Compound 3-04, 6-methoxy-2-(5-methyl-2-furyl)-N-(1-methyl-4-piperidyl)-7-(3-pyrrolidin-1-ylpropoxy)quinolin-4-amine; 2,2,2-trifluoroacetic acid]	100 to 1000	100 to 1000	100 to 1000	100 to 1000	100 to 1000	100 to 1000	100 to 1000	100 to 1000	1000 to 10000	100 to 1000	100 to 1000	100 to 1000	100 to 1000	1000 to 10000	100 to 1000	1000 to 10000	100 to 1000	100 to 1000	100 to 1000	≤ 100	IC50 [19]: < 100 nM; GI50 [20]: 100 to 1000 nM; GI50 [21]: 100 to 1000 nM
COc1cc2c(NCC3CCN(C)CC3)cc(-c3ccc(C)o3)nc2cc1OCCCN1CCCC1 [Compound 3-07]	100 to 1000	100 to 1000	100 to 1000	100 to 1000	100 to 1000	100 to 1000	100 to 1000	100 to 1000	1000 to 10000	100 to 1000	100 to 1000	1000 to 10000	100 to 1000	100 to 1000	100 to 1000	100 to 1000	100 to 1000	100 to 1000	≤ 100	100 to 1000	IC50 [19]: < 100 nM; GI50 [20]: 100 to 1000 nM; GI50 [21]: 100 to 1000 nM
